Measured values as given in article PMC3448953 (2012).
Where a name gives a salt, the structure may show the parent alone.

Molecular target: BioA (Mycobacterium tuberculosis, UniProt P9WQ81)
Test: continuous coupled fluorescence enzyme assay
Type: biochemical

Chain of BioA (P9WQ81 whole entry): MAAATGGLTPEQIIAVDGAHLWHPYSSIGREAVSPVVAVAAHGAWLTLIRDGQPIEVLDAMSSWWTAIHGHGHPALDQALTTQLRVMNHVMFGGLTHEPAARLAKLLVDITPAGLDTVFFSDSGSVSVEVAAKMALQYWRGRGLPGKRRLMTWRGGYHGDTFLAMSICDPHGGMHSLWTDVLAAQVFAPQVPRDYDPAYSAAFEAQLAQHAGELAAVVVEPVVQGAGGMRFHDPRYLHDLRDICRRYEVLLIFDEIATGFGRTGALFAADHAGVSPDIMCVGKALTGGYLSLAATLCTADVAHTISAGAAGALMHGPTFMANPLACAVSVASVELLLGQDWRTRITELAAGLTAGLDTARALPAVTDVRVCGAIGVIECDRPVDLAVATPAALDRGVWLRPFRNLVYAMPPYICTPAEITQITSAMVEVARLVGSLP

## N[C@H]1C=C[C@@H](CCCO)C1 (racemic) [M-2, (±)-cis-3-(-4-Aminocyclopent-2-enyl)propan-1-ol hydrochloride salt]
  IC50: 57 ± 1.9 µM
